In ChEMBL document CHEMBL4804286, “3-amino-4-(4-(4 (dimethylcarbamoyl) phenyl)-1,4-diazepan-1-yl) thieno [2,3-b] pyridine-2-carboxamide for use in cancer therapy and formulations comprising the same” (2020):
Several values for one entry are separate records, joined by “and”; a condition that tells them apart may be missing. Identical values can stand only once. Activity calls are given as the source filed them. The rule behind the calls is not given here.

Legend:
[1] = target: Tyrosine-protein kinase ABL1 (Homo sapiens) (UniProt P00519); experiment: Inhibition of phosphorylated human ABL1 assessed as percent of control at 2000 nM by KINOMEscan assay relative to control; design: scale not given: the % may be the effect or the level left
[2] = target: Atypical kinase COQ8B, mitochondrial (Homo sapiens) (UniProt Q96D53); experiment: Inhibition of human ADCK4 assessed as percent of control at 2000 nM by KINOMEscan assay relative to control; design: scale not given: the % may be the effect or the level left
[3] = target: RAC-alpha serine/threonine-protein kinase (Homo sapiens) (UniProt P31749); experiment: Inhibition of human AKT1 assessed as percent of control at 2000 nM by KINOMEscan assay relative to control; design: scale not given: the % may be the effect or the level left
[4] = target: 5'-AMP-activated protein kinase catalytic subunit alpha-1 (Homo sapiens) (UniProt Q13131); experiment: Inhibition of human AMPK-alpha1 assessed as percent of control at 2000 nM by KINOMEscan assay relative to control; design: scale not given: the % may be the effect or the level left
[5] = target: Calcium/calmodulin-dependent protein kinase type 1D (Homo sapiens) (UniProt Q8IU85); experiment: Inhibition of human CAMK1D assessed as percent of control at 2000 nM by KINOMEscan assay relative to control; design: scale not given: the % may be the effect or the level left
[6] = target: Cyclin-dependent kinase 8 (Homo sapiens) (UniProt P49336); experiment: Inhibition of human CDK8 assessed as percent of control at 2000 nM by KINOMEscan assay relative to control; design: scale not given: the % may be the effect or the level left; settings: INHIBITOR
[7] = target: Casein kinase II subunit alpha' (Homo sapiens) (UniProt P19784); experiment: Inhibition of human CSNK2A2 assessed as percent of control at 2000 nM by KINOMEscan assay relative to control; design: scale not given: the % may be the effect or the level left
[8] = test system: Epidermal growth factor receptor (Homo sapiens), P00533 [T790M]; experiment: Inhibition of human EGFR T790M mutant assessed as percent of control at 2000 nM by KINOMEscan assay relative to control; design: scale not given: the % may be the effect or the level left
[9] = target: Receptor tyrosine-protein kinase erbB-3 (Homo sapiens) (UniProt P21860); experiment: Inhibition of human ERBB3 assessed as percent of control at 2000 nM by KINOMEscan assay relative to control; design: scale not given: the % may be the effect or the level left
[10] = test system: Receptor-type tyrosine-protein kinase FLT3 (Homo sapiens), P36888 [UNDEFINED MUTATION]; experiment: Inhibition of human FLT3 ITD mutant assessed as percent of control at 2000 nM by KINOMEscan assay relative to control; design: scale not given: the % may be the effect or the level left
[11] = target: Homeodomain-interacting protein kinase 1 (Homo sapiens) (UniProt Q86Z02); experiment: Inhibition of human HIPK1 assessed as percent of control at 2000 nM by KINOMEscan assay relative to control; design: scale not given: the % may be the effect or the level left
[12] = target: Serine/threonine-protein kinase ICK (Homo sapiens) (UniProt Q9UPZ9); experiment: Inhibition of human ICK assessed as percent of control at 2000 nM by KINOMEscan assay relative to control; design: scale not given: the % may be the effect or the level left
[13] = target: Inhibitor of nuclear factor kappa-B kinase subunit epsilon (Homo sapiens) (UniProt Q14164); experiment: Inhibition of human IKK-epsilon assessed as percent of control at 2000 nM by KINOMEscan assay relative to control; design: scale not given: the % may be the effect or the level left
[14] = target: Mitogen-activated protein kinase 8 (Homo sapiens) (UniProt P45983); experiment: Inhibition of human JNK1 assessed as percent of control at 2000 nM by KINOMEscan assay relative to control; design: scale not given: the % may be the effect or the level left
[15] = target: Tyrosine-protein kinase Lck (Homo sapiens) (UniProt P06239); experiment: Inhibition of human LCK assessed as percent of control at 2000 nM by KINOMEscan assay relative to control; design: scale not given: the % may be the effect or the level left
[16] = target: MAP kinase-interacting serine/threonine-protein kinase 2 (Homo sapiens) (UniProt Q9HBH9); experiment: Inhibition of human MKNK2 assessed as percent of control at 2000 nM by KINOMEscan assay relative to control; design: scale not given: the % may be the effect or the level left
[17] = target: Serine/threonine-protein kinase NIM1 (Homo sapiens) (UniProt Q8IY84); experiment: Inhibition of human NIM1 assessed as percent of control at 2000 nM by KINOMEscan assay relative to control; design: scale not given: the % may be the effect or the level left
[18] = target: Phosphatidylinositol 4,5-bisphosphate 3-kinase catalytic subunit alpha isoform (Homo sapiens) (UniProt P42336); experiment: Inhibition of human PIK3CA assessed as percent of control at 2000 nM by KINOMEscan assay relative to control; design: scale not given: the % may be the effect or the level left
[19] = target: Serine/threonine-protein kinase pim-1 (Homo sapiens) (UniProt P11309); experiment: Inhibition of human PIM1 assessed as percent of control at 2000 nM by KINOMEscan assay relative to control; design: scale not given: the % may be the effect or the level left
[20] = target: Phosphatidylinositol 5-phosphate 4-kinase type-2 beta (Homo sapiens) (UniProt P78356); experiment: Inhibition of human PIP5K2B assessed as percent of control at 2000 nM by KINOMEscan assay relative to control; design: scale not given: the % may be the effect or the level left
[21] = target: Phosphatidylinositol 5-phosphate 4-kinase type-2 gamma (Homo sapiens) (UniProt Q8TBX8); experiment: Inhibition of human PIP5K2C assessed as percent of control at 2000 nM by KINOMEscan assay relative to control; design: scale not given: the % may be the effect or the level left
[22] = target: Serine/threonine-protein kinase N1 (Homo sapiens) (UniProt Q16512); experiment: Inhibition of human PKN1 assessed as percent of control at 2000 nM by KINOMEscan assay relative to control; design: scale not given: the % may be the effect or the level left
[23] = target: Serine/threonine-protein kinase N2 (Homo sapiens) (UniProt Q16513); experiment: Inhibition of human PKN2 assessed as percent of control at 2000 nM by KINOMEscan assay relative to control; design: scale not given: the % may be the effect or the level left
[24] = target: cGMP-dependent protein kinase 1 (Homo sapiens) (UniProt Q13976); experiment: Inhibition of human PRKG1 assessed as percent of control at 2000 nM by KINOMEscan assay relative to control; design: scale not given: the % may be the effect or the level left
[25] = target: Rho-associated protein kinase 1 (Homo sapiens) (UniProt Q13464); experiment: Inhibition of human ROCK1 assessed as percent of control at 2000 nM by KINOMEscan assay relative to control; design: scale not given: the % may be the effect or the level left
[26] = target: Ribosomal protein S6 kinase alpha-5 (Homo sapiens) (UniProt O75582); experiment: Inhibition of human C-terminal RPS6KA5 kinase domain 2 assessed as percent of control at 2000 nM by KINOMEscan assay relative to control; design: scale not given: the % may be the effect or the level left
[27] = target: Serine/threonine-protein kinase SIK2 (Homo sapiens) (UniProt Q9H0K1); experiment: Inhibition of human SIK2 assessed as percent of control at 2000 nM by KINOMEscan assay relative to control; design: scale not given: the % may be the effect or the level left
[28] = target: Serine/threonine-protein kinase TNNI3K (Homo sapiens) (UniProt Q59H18); experiment: Inhibition of human TNNI3K assessed as percent of control at 2000 nM by KINOMEscan assay relative to control; design: scale not given: the % may be the effect or the level left
Myc-CaP = experiment: Antitumor activity against murine castration-resistant Myc-CaP cells xenografted in male FVB mouse assessed as suppression of tumor volume; type: functional
MDA-MB-468 = experiment: Antitumor activity against human MDA-MB-468 cells xenografted in female immunodeficient NSG mouse assessed as decrease in tumor weight at 250 ppm, po incorporated into medicated diet for 13 days followed by 5 mg/kg, po dose administered daily and after 37 days administered 8 mg/kg, po dose; type: functional, organism-based

Serine/threonine-protein kinase NIM1 (Homo sapiens), sequence (Q8IY84 whole entry, canonical isoform): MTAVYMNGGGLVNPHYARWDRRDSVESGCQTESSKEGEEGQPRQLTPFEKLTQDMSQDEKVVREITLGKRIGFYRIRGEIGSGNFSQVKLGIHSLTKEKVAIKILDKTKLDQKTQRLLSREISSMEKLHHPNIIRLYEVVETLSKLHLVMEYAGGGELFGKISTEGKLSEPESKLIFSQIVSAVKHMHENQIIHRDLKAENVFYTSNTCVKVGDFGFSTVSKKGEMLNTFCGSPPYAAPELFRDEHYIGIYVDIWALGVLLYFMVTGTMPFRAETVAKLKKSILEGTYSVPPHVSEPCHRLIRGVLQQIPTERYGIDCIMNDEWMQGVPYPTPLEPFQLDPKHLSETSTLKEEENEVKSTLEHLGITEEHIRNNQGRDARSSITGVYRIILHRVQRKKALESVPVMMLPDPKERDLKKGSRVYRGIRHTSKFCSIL
Serine/threonine-protein kinase ICK (Homo sapiens), sequence (Q9UPZ9 whole entry): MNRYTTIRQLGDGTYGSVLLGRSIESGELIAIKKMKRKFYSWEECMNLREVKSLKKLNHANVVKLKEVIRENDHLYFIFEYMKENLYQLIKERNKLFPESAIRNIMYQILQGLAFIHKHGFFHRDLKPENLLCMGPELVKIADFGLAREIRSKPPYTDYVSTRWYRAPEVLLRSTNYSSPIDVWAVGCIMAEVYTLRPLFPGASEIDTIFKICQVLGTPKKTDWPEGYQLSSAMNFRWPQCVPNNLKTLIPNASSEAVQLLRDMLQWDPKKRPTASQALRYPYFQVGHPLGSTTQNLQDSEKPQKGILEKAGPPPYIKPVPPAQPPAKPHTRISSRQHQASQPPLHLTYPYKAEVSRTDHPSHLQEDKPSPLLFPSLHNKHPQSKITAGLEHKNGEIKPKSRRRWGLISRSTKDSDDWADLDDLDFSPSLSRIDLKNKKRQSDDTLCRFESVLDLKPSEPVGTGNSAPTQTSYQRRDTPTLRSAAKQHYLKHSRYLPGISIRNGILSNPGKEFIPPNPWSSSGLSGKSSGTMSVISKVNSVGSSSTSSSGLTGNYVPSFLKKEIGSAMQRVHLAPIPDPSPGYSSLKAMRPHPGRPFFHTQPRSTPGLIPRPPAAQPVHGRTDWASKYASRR
Rho-associated protein kinase 1 (Homo sapiens), sequence (Q13464 2-1354 limits assumed): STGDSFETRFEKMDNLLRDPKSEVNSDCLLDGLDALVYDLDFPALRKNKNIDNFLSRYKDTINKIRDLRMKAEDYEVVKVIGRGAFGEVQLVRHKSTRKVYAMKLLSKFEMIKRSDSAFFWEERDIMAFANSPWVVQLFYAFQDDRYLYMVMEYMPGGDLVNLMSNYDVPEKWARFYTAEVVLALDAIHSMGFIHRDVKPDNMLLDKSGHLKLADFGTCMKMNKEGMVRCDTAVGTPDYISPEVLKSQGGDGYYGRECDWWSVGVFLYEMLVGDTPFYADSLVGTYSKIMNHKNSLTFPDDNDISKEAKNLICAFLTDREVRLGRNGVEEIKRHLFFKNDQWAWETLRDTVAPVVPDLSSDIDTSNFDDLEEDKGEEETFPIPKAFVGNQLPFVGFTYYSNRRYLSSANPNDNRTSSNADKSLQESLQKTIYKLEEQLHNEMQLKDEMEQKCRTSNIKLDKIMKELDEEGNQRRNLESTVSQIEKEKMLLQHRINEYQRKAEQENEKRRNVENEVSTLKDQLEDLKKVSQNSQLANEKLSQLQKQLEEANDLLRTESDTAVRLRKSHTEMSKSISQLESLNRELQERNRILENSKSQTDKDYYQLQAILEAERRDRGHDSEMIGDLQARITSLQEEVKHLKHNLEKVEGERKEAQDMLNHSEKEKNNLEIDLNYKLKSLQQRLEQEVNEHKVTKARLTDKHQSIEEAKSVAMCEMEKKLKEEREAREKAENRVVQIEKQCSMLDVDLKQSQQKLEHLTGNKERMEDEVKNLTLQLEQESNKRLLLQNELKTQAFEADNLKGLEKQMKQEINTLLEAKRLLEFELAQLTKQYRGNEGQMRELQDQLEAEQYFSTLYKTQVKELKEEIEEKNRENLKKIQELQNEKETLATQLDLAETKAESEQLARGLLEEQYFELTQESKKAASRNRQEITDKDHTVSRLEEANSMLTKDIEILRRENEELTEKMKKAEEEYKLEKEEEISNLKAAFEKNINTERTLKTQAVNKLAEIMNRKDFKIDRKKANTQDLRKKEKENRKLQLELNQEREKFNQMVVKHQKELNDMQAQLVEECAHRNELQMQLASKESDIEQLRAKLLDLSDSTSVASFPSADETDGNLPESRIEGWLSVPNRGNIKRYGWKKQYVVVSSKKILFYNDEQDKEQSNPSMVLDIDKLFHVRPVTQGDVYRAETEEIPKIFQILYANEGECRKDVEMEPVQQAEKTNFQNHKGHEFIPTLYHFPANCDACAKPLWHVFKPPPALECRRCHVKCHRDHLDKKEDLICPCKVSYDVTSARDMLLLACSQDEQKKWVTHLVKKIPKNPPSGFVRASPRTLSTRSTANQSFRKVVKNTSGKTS
Serine/threonine-protein kinase N1 (Homo sapiens), sequence (Q16512 2-942 limits assumed): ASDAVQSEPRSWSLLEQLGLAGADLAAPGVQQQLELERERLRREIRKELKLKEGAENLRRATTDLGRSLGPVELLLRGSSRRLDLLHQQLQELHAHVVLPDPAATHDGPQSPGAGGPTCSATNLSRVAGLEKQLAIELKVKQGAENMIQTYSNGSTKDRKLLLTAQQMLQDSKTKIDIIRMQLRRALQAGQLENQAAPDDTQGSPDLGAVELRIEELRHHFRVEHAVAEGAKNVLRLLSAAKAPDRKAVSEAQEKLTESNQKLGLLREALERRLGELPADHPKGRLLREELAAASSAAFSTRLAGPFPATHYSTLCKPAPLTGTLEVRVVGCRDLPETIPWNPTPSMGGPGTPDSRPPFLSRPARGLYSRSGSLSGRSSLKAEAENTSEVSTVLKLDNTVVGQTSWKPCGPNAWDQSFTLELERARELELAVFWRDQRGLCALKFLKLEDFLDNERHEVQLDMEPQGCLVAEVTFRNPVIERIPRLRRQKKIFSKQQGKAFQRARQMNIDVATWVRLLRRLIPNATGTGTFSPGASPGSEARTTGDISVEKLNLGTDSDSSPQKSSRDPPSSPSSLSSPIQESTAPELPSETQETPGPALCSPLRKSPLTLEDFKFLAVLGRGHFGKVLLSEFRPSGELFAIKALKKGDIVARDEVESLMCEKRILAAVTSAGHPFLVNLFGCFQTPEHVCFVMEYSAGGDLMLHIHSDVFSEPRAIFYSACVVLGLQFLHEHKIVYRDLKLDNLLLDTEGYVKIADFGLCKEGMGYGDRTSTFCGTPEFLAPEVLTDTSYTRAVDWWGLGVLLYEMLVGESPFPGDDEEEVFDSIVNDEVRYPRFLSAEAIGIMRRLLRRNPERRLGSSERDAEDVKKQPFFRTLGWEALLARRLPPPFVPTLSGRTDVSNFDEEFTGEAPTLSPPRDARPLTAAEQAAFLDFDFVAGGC
cGMP-dependent protein kinase 1 (Homo sapiens), sequence (Q13976 whole entry): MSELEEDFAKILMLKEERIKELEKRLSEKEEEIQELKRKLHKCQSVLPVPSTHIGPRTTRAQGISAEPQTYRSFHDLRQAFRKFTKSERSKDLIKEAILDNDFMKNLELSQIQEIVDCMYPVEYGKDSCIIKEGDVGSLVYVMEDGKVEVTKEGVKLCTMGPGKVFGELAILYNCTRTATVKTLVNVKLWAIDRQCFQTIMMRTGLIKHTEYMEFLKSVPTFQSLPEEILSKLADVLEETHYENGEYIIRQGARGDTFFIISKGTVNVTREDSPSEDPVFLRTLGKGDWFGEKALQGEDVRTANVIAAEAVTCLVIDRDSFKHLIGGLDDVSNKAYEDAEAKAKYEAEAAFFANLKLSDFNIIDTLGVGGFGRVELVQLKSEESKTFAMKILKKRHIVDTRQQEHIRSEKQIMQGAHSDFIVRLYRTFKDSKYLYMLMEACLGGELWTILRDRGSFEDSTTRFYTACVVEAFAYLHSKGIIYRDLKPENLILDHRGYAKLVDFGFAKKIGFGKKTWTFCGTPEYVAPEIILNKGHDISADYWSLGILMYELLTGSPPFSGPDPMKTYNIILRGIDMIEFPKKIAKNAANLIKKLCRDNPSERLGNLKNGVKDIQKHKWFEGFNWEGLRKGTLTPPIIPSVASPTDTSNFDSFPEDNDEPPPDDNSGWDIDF
Ribosomal protein S6 kinase alpha-5 (Homo sapiens), sequence (O75582 whole entry, looked up, the tested form may be a part): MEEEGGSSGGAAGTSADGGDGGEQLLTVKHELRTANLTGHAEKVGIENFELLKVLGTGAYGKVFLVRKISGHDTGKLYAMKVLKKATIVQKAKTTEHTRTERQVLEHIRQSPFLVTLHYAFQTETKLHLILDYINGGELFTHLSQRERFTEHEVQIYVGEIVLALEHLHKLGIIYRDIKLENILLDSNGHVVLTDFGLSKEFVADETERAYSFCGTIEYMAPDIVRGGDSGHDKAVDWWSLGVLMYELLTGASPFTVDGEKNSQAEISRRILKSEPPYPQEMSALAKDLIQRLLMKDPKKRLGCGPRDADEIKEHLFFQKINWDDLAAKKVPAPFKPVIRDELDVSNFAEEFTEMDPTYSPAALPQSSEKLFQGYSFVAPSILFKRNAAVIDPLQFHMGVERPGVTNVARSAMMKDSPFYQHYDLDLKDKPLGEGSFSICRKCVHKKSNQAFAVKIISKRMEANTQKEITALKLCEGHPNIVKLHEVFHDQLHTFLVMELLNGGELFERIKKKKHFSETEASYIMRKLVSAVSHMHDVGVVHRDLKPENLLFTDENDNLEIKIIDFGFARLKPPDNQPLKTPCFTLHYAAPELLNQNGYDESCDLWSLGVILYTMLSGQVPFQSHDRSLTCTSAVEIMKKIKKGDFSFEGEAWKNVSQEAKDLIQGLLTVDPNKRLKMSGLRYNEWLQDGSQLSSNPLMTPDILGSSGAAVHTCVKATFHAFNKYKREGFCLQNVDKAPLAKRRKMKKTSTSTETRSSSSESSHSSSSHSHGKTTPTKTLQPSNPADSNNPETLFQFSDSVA

## CN(C)C(=O)c1ccc(N2CCCN(c3ccnc4sc(C(N)=O)c(N)c34)CC2)cc1
[1]
  Activity: 90% and 77%
[2]
  Activity: 95% and 83%
[3]
  Activity: 100%
[4]
  Activity: 100%
[5]
  Activity: 87% and 93%
[6]
  Activity: 2.6% and 0.25%
[7]
  Activity: 92% and 100%
[8]
  Activity: 98% and 87%
[9]
  Activity: 100% and 88%
[10]
  Activity: 82% and 72%
[11]
  Activity: 86% and 71%
[12]
  Activity: 84% and 66%
[13]
  Activity: 100%
[14]
  Activity: 68%
[14]; INHIBITOR
  Activity: 30%
[15]
  Activity: 91% and 100%
[16]
  Activity: 83% and 69%
[17]
  Activity: 56% and 78%
[18]
  Activity: 100% and 79%
[19]
  Activity: 88% and 100%
[20]
  Activity: 92% and 95%
[21]
  Activity: 80% and 64%
[22]
  Activity: 96% and 100%
[23]
  Activity: 100%
[24]
  Activity: 88% and 100%
[25]
  Activity: 77% and 67%
[26]
  Activity: 95% and 100%
[27]
  Activity: 96% and 100%
[28]
  Activity: 100%
Myc-CaP
  Activity: Active
MDA-MB-468
  Activity: Active
